Like-named read-outs stand apart in the source and are kept apart here.
Key:
cholesterol absorption = test: 14C-cholesterol absorption in normal rats (oral gavage); format: in vivo; details: Rattus norvegicus; for ED50: normal fed rats
Method: Representative compounds were further tested in vivo to establish the percent inhibition of cholesterol absorption. In this study, normal rats were dosed (oral gavage) with ^14 C-cholesterol plus the test compound. Blood samples taken at six hours and/or intermittently up to twenty-four hours were analyzed and the percent inhibition of cholesterol absorption was calculated.

[1] = test system: acyl-coenzyme A: cholesterol acyltransferase; test: Inhibition of ACAT / intracellular cholesterol esterification in vitro (procedure of Ross et al.); format: cell-based; details: for IC50: read-out: IC50
plasma cholesterol = test: Plasma cholesterol in cholesterol-cholic acid fed rats; format: in vivo; details: Rattus norvegicus, oral gavage; for change in vivo at 100 mg/kg / change in vivo at 20 mg/kg / change in vivo at 60 mg/kg / change in vivo at 40 mg/kg: 96 h, four days; for ED50: fifty percent reduction of plasma cholesterol
Method: In addition, representative compounds were studied in vivo in cholesterol-cholic acid fed rats to determine the percent decrease of cholesterol in their plasma. This study involves rats which are, prior to testing, trained for one week to eat over a four hour time period each day. Upon initiation of the experiment, the rats diet is supplemented with 1.0 percent cholesterol and 0.25 percent cholic acid. The rats are dosed with the test compound by oral gavage just prior to adjust following the four hour feeding period. This is repeated for four days. On the fifth day, the rats are sacrificed and the total plasma cholesterol content is determined. The percent decrease in elevated plasma cholesterol levels is calculated in comparison with […].

[2] = read-out: % Decrease in Plasma Cholesterol
[3] = normal rats, read-out: % Inhibition of Absorption
[4] = heading: % Decrease in Plasma Cholesterol

CCCCCC(C)N(Cc1ccc(C(C)(C)C)cc1)C(Nc1ccc(N(C)C)cc1)=C1C(=O)OC(C)(C)OC1=O (stereo not drawn) [Compound 21, 5-[[[4-(Dimethylamino)phenyl]amino][[[4-(1,1-dimethylethyl)phenyl]methyl](1-methylhexyl)-amino]methylene]-2,2-dimethyl-1,3-dioxane-4,6-dione]
change in vivo at 75 mg/kg (cholesterol absorption; normal rats, 75 mg/kg, read-out: % Inhibition of Absorption): -83% | % Inhibition ([1]; 25 μM): 98% | IC50 [1]: 250 nM | change in vivo at 100 mg/kg (plasma cholesterol; [2]): -78%

CC(C)Cc1ccc(CN(C(Nc2ccc(N(C)C)cc2)=C2C(=O)OC(C)(C)OC2=O)C(C)CCCC(C)(C)O)cc1 (stereo not drawn) [Compound 53]
change in vivo at 10 mg/kg (cholesterol absorption; [3]): -50% | % Inhibition ([1]; 25 μM): 81% | IC50 [1]: 5200 nM

CC1(C)OC(=O)C(=C(Nc2cc(C(C)(C)C)c(O)c(C(C)(C)C)c2)Nc2cnc3ccccc3c2)C(=O)O1 [Compound 81, 5-[(3,5-Di-tert-butyl-4-hydroxy-phenylamino)-(quinolin-3-ylamino)-methylene]-2,2-dimethyl-[1,3]dioxane-4,6-dione]
change in vivo at 3 mg/kg (cholesterol absorption; normal rats, 3 mg/kg, read-out: % Inhibition of Absorption): -90% | % Inhibition ([1]; 50 μM): 90%

CCCCCCCN(Cc1ccc(C(C)(C)C)cc1)C(Nc1ccc(N(C)C)cc1)=C1C(=O)OC(C)(C)OC1=O [Compound 5, 5-[[[4-(Dimethylamino)phenyl]amino][[[4-(1,1-dimethylethyl)phenyl]methyl]heptylamino]methylene]-2,2-dimethyl-1,3-dioxane-4,6-dione]
change in vivo at 200 mg/kg (cholesterol absorption; [3]): -91% | % Inhibition ([1]; 25 μM): 99% | IC50 [1]: 1100 nM | change in vivo at 100 mg/kg (plasma cholesterol; [2]): -35%

CCCCCC(C)N(Cc1ccc(CC(C)(C)C)cc1)C(Nc1c(C)cc(N(C)C)cc1C)=C1C(=O)OC(C)(C)OC1=O (stereo not drawn) [Compound 33, 5-[[[2,6-Dimethyl-4-(dimethylamino)phenyl]amino][[[4-(2,2-dimethylpropyl)phenyl]methyl](1-methylhexyl)amino]methylene]-2,2-dimethyl-1,3-dioxane-4,6-dione]
change in vivo at 50 mg/kg (cholesterol absorption; normal rats, 50 mg/kg, read-out: % Inhibition of Absorption): -86% | % Inhibition ([1]; 25 μM): 98% | IC50 [1]: 380 nM | change in vivo at 20 mg/kg (plasma cholesterol; [2]): -30%

CCCCCC(C)N(Cc1ccc(C(C)(C)C)cc1)C(Nc1ccc(OC)cc1OC)=C1C(=O)OC(C)(C)OC1=O (stereo not drawn) [Compound 4, 5-[[(2,4-Dimethoxophenyl)amino][[[4-(1,1-dimethylethyl)phenyl]methyl](1-methylhexyl)amino]-methylene]-2,2-dimethyl-1,3-dioxane-4,6-dione]
ED50 (cholesterol absorption): 10 mg/kg | change in vivo at 200 mg/kg (cholesterol absorption; [3]): -93% | % Inhibition ([1]; 25 μM): 99% | IC50 [1]: 260 nM | change in vivo at 100 mg/kg (plasma cholesterol; [2]): -98% | ED50 (plasma cholesterol): 64 mg/kg

CCCCCC(C)N(Cc1ccc(CC(C)C)cc1)C(Nc1ccc(OC)cc1OC)=C1C(=O)OC(C)(C)OC1=O (stereo not drawn) [Compound 32, 5-[[(2,4-Dimethoxyphenyl)amino][(1-methylhexyl)[[4-(2-methylpropyl)phenyl]methyl]amino]-methylene]-2,2-dimethyl-1,3-dioxane-4,6-dione]
ED50 (cholesterol absorption): 4 mg/kg | change in vivo at 20 mg/kg (cholesterol absorption; normal rats, 20 mg/kg, read-out: % Inhibition of Absorption): -79% | % Inhibition ([1]; 25 μM): 98% | IC50 [1]: 240 nM | change in vivo at 60 mg/kg (plasma cholesterol; [4]): -97% | ED50 (plasma cholesterol): 17 mg/kg

CC(C)CCCC(C)N(Cc1ccc(CC(C)C)cc1)C(Nc1ccc(N(C)C)cc1)=C1C(=O)OC(C)(C)OC1=O (stereo not drawn) [Compound 42]
ED50 (cholesterol absorption): 5 mg/kg | % Inhibition ([1]; 25 μM): 98% | IC50 [1]: 270 nM | change in vivo at 40 mg/kg (plasma cholesterol; [2]): -63%

CCCCCc1ccc(CN(C(Nc2ccc(OC)cc2OC)=C2C(=O)OC(C)(C)OC2=O)C(C)CCCCC)cc1 (stereo not drawn) [Compound 40]
ED50 (cholesterol absorption): 2 mg/kg | change in vivo at 10 mg/kg (cholesterol absorption; [3]): -69% | % Inhibition ([1]; 25 μM): 99% | IC50 [1]: 360 nM | change in vivo at 40 mg/kg (plasma cholesterol; [2]): -78% | ED50 (plasma cholesterol): 7 mg/kg

CCCCCC(C)N(Cc1ccc(CC(C)(C)C)cc1)C(Nc1ccc(OC)cc1OC)=C1C(=O)OC(C)(C)OC1=O (stereo not drawn) [Compound 7, 5-[[(2,4-Dimethoxyphenyl)amino][[[4-(2,2-dimethylpropyl)phenyl]methyl](1-methylhexyl)amino]methylene]-2,2-dimethyl-1,3-dioxane-4,6-dione]
ED50 (cholesterol absorption): 3 mg/kg | % Inhibition ([1]; 25 μM): 99% | IC50 [1]: 830 nM | change in vivo at 100 mg/kg (plasma cholesterol; [4]): -100% | ED50 (plasma cholesterol): 6 mg/kg

CCCCCC(C)N(Cc1ccc(CC(C)C)cc1)C(Nc1ccc(N(C)C)cc1C)=C1C(=O)OC(C)(C)OC1=O (stereo not drawn) [Compound 46]
ED50 (cholesterol absorption): 2 mg/kg | change in vivo at 10 mg/kg (cholesterol absorption; [3]): -82% | % Inhibition ([1]; 25 μM): 98% | IC50 [1]: 350 nM | change in vivo at 20 mg/kg (plasma cholesterol; [2]): -70% | ED50 (plasma cholesterol): 8 mg/kg

COc1ccc(NC(=C2C(=O)OC(C)(C)OC2=O)N(Cc2ccc(CC(C)C)cc2)C2CCN(CCc3ccccc3)CC2)c(OC)c1 [Compound 8, 5-[[(2,4-Dimethoxyphenyl)amino][[[4-(2-methylpropyl)phenyl]methyl][1-(phenylethyl)-4-piperidinyl]amino]methylene]-2,2-dimethyl-1,3-dioxane-4,6-dione]
change in vivo at 10 mg/kg (cholesterol absorption; [3]): -16% | % Inhibition ([1]; 25 μM): 85% | IC50 [1]: 5600 nM

COc1ccc(NC(=C2C(=O)OC(C)(C)OC2=O)N(Cc2ccc(CC(C)C)cc2)C(C)CCCC(C)(C)O)c(OC)c1 (stereo not drawn) [Compound 52, 5-[[(2,4-Dimethoxyphenyl)amino][(5-hydroxy-1,5-dimethylhexyl)[[4-(2-methylpropyl)phenyl]-methyl]amino]methylene]-2,2-dimethyl-1,3-dioxane-2,4-dione]
change in vivo at 10 mg/kg (cholesterol absorption; [3]): -29% | % Inhibition ([1]; 25 μM): 89% | IC50 [1]: 5600 nM

CCCCCc1ccc(CN(C(Nc2ccc(N(C)C)cc2C)=C2C(=O)OC(C)(C)OC2=O)C(C)CCCCC)cc1 (stereo not drawn) [Compound 54, 5-[[[4-(Dimethylamino)-2-methylphenyl]amino][(1-methylhexyl)[(4-pentylphenyl)methyl]-amino]methylene]-2,2-dimethyl-1,3-dioxane-4,6-dione]
% Inhibition ([1]; 25 μM): 98% | IC50 [1]: 680 nM | change in vivo at 20 mg/kg (plasma cholesterol; [2]): -77%

CCCCCCCN(Cc1ccc(CCC(C)C)cc1)C(Nc1ccc(OC)cc1OC)=C1C(=O)OC(C)(C)OC1=O [Compound 55, 5-[[(2,4-Dimethoxyphenyl)amino][heptyl[[4-(3-methylbutyl)phenyl]methyl]amino]methylene]2,2-dimethyl-1,3-dioxane-4,6-dione]
% Inhibition ([1]; 25 μM): 97% | IC50 [1]: 3000 nM | change in vivo at 20 mg/kg (plasma cholesterol; [2]): -40%

CCCCCCC(CCCCCC)N(Cc1ccc(CC(C)C)cc1)C(Nc1ccc(N(C)C)cc1)=C1C(=O)OC(C)(C)OC1=O [Compound 36]
% Inhibition ([1]; 26 μM): 99% | IC50 [1]: 44 nM | change in vivo at 20 mg/kg (plasma cholesterol; [2]): -62%

CCCCCCCN(Cc1ccc(CCCCC)cc1)C(Nc1ccc(OC)cc1OC)=C1C(=O)OC(C)(C)OC1=O [Compound 14, 5-[[(2,4-Dimethoxyphenyl)amino][heptyl[(4-pentylphenyl)methyl]amino]methylene]-2,2-dimethyl-1,3-dioxane-4,6-dione]
% Inhibition ([1]; 25 μM): 99% | IC50 [1]: 840 nM | change in vivo at 100 mg/kg (plasma cholesterol; [2]): -85% | ED50 (plasma cholesterol): 16 mg/kg

CCCCCCCN(Cc1ccc(OCCC(C)C)cc1)C(Nc1ccc(OC)cc1OC)=C1C(=O)OC(C)(C)OC1=O [Compound 6, 5-[[(2,4-Dimethoxyphenyl)amino][heptyl[[4-[(3-methylbutyl)oxy]phenyl]methyl]amino]-methylene]-2,2-dimethyl-1,3-dioxane-4,6-dione]
% Inhibition ([1]; 25 μM): 99% | IC50 [1]: 1500 nM | change in vivo at 100 mg/kg (plasma cholesterol; [2]): -42%

CCCCCCCN(Cc1ccc(C(C)(C)C)cc1)C(Nc1c(OC)cc(OC)cc1OC)=C1C(=O)OC(C)(C)OC1=O [Compound 59, 5-[[[[4-(1,1-Dimethylethyl)phenyl]methyl]heptylamino][(2,4,6-trimethoxyphenyl)amino]-methylene]-2,2-dimethyl-1,3-dioxane-4,6-dione]
change in vivo at 200 mg/kg (cholesterol absorption; [3]): -21% | % Inhibition ([1]; 25 μM): 94% | IC50 [1]: 700 nM

CCCCOc1ccc(NC(=C2C(=O)OC(C)(C)OC2=O)N(Cc2ccc(C(C)(C)C)cc2)C(C)CCCC(C)C)cc1 (stereo not drawn) [Compound 28, 5-[[(4-Butoxyphenyl)amino][[[4-(1,1-dimethylethyl)phenyl]methyl](1,5-dimethylhexyl)amino]-methylene]-2,2-dimethyl-1,3-dioxane-4,6-dione]
% Inhibition ([1]; 25 μM): 98% | IC50 [1]: 690 nM | change in vivo at 40 mg/kg (plasma cholesterol; [2]): -15%

CCCCCCCN(Cc1ccc(CC(C)C)cc1)C(Nc1ccc(OC)cc1OC)=C1C(=O)OC(C)(C)OC1=O [Compound 31, 5-[[(2,4,-Dimethoxyphenyl)amino][heptyl[[4-(2-methylpropyl)phenyl]methyl]amino]methylene]-2,2-dimethyl-1,3-dioxane-4,6-dione]
% Inhibition ([1]; 25 μM): 97% | IC50 [1]: 910 nM | change in vivo at 60 mg/kg (plasma cholesterol; [2]): -71%

COc1ccc(NC(=C2C(=O)OC(C)(C)OC2=O)N(Cc2ccc(CC(C)C)cc2)C(C)CCCC(C)C)c(OC)c1 (stereo not drawn) [Compound 39, 5-[[(2,4-Dimethoxyphenyl)amino][(1,5-dimethylhexyl)[[4-(2-methylpropyl)phenyl]methyl]amino]methylene]-2,2-dimethyl-1,3-dioxane-4,6-dione]
% Inhibition ([1]; 25 μM): 99% | IC50 [1]: 370 nM | change in vivo at 40 mg/kg (plasma cholesterol; [2]): -65%

From patent publication US5399697A, “N,N',N'-trisubstituted-5-bisaminomethylene-1,3-dioxane-4,6-dione inhibitors of acyl-CoA:cholesterol-acyl transferase” (American Home Products Corporation, priority 1993, dated 1995)
